Seven molecules from patent US5674876A, “.rho.-heteroatom-substituted phenols and uses thereof” (Research Development Foundation, priority 1995, dated 1997) can be followed below.

A word on the inhibition: it is the relative decrease from the control value, in per cent.

Holding throughout (assay type): cell-based
Assay [1] has as its system MDA MB 435 (Metastic Human Breast Cancer Cell Line). The assay is described as follows: Inhibition of DNA synthesis (3H-TdR uptake) / proliferation, MB-435. The following applies: for inhibition at 0.1 µg/mL / inhibition at 1 µg/mL / inhibition at 5 µg/mL / inhibition at 10 µg/mL / inhibition at 20 µg/mL: Homo sapiens, MDA-MB-435, 48 h; for inhibition at 0.1 µg/mL: MB-435, 0.1 μg/mL; for inhibition at 1 µg/mL: MB-435, 1 μg/mL; for inhibition at 5 µg/mL: MB-435, 5 μg/mL. Here is the method:
(§1) Cells were cultured in the following media: 1) MDA MB 435 cells were cultured in Minimum Essential Media (MEM-HyClone, Logan, Utah) supplemented with 5% heat inactivated fetal bovine serum (HyClone), 2 mM glutamine (Sigma, St. Louis, Mo.), 1 mM sodium pyruvate (Sigma), 1X MEM Non-Essential Amino Acids (Sigma), 2X MEM Vitamins (Sigma), and 100 IU/mL penicillin/100 μg/mL streptomycin (HyClone); 2) MCF-7 McGuire cells were cultured in Minimum Essential Media (MEM-HyClone, Logan, Utah) supplemented with 5% heat inactivated fetal bovine serum (HyClone), 2 mM glutamine (Sigma, St. Louis, Mo.), and 100 IU/mL penicillin/100 μg/mL streptomycin (HyClone); 3) HL-60 cells were cultured in Iscoves Modified Dulbecco's Media (IMDM-HyClone, Logan, Utah) supplemented with 5% heat inactivated fetal bovine serum (HyClone), 2 mM glutamine (Sigma, St. Louis, Mo.), 1 mM sodium pyruvate (Sigma), 1X MEM Non-Essential Amino Acids (Sigma), 2X MEM Vitamins (Sigma), and 100 IU/mL penicillin/100 μg/mL streptomycin (HyClone); 2) MCF-7 McGuire cells were cultured in Minimum Essential Media (MEM-HyClone, Logan, Utah) supplemented with 5% heat inactivated fetal bovine serum (HyClone), 2 mM glutamine (Sigma, St. Louis, Mo.), and 100 IU/mL penicillin/100 μg/mL streptomycin (HyClone); 3) HL-60 cells were cultured in Iscoves Modified Dulbecco's Media (IMDM-HyClone, Logan, Utah) supplemented with 5% heat inactivated fetal bovine serum (HyClone), 2 mM glutamine (Sigma, St. Louis, Mo.), and 100 IU/mL penicillin/100 μg/mL streptomycin (HyClone).
(§2) All compounds were handled as if they were light sensitive. All compounds were initially dissolved in absolute ethanol and subsequently diluted to a final concentration of 0.5% ethanol with the appropriate medium.
(§3) For the bioassay, all cells were used at 2.5×10^5 /mL. Cells were treated with each of the compounds at concentrations of 20, 10, 5, 1, 0.1, and 0.01 μg/mL , and 200 μl of each treatment group were plated in quadruplicate in a 96 well culture plate (Corning, Corning N.Y.). Plates were done in duplicate, one plate to be used for viability testing and the other plate to examine ^3 H-TdR uptake (DNA synthesis).
(§4) Plates were cultured for 48 hours at 37° C., 5% CO2. Eight hours prior to the end of incubation, ^3 H-TdR was added to one of the duplicate plates and incubation continued for 8 hours. The cells were then harvested (trypsinization was required to harvest MDA MB 435 and MCF-7 McGuire). At the end of the incubation, the cells were removed from the wells (of the duplicate plate--no radioisotope added) and viability checked by the Trypan Blue Exclusion method. Percent viability and percent suppression of each treatment group were calculated.
(§5) With respect to the data shown in the Tables below, the data is arranged from greatest percent inhibition of DNA synthesis to lowest. […] "NT" refers to "Not Tested". The cells were cultured for 48 hours, pulsed 8 hours with tritiated thymidine, harvested and counted. MDA MB 435 is the abbreviation for the Metastic Human Breast Cancer Cell Line. MCF-7 McGuire is the abbreviation for the Estrogen Responsive Human Breast Cancer Cell Line and HL-60 is the Human Promyelocytic Leukemia Cell Line.

The subject of assay [2] is MCF-7 McGuire (Estrogen Responsive Human Breast Cancer Cell Line). Nature of the assay: Inhibition of DNA synthesis (3H-TdR uptake) / proliferation, MCF-7. Conditions: for inhibition at 0.1 µg/mL / inhibition at 1 µg/mL / inhibition at 5 µg/mL / inhibition at 10 µg/mL / inhibition at 20 µg/mL: Homo sapiens, MCF7, 48 h; for inhibition at 0.1 µg/mL: MCF-7, 0.1 μg/mL; for inhibition at 1 µg/mL: MCF-7, 1 μg/mL. Here is the method:
as §1, §2, §3, §4, §5

The subject of assay [3] is HL-60 (Human Promyelocytic Leukemia Cell Line). The assay is described as follows: Inhibition of DNA synthesis (3H-TdR uptake) / proliferation, HL-60. Conditions: for inhibition at 0.1 µg/mL / inhibition at 1 µg/mL / inhibition at 5 µg/mL / inhibition at 10 µg/mL / inhibition at 20 µg/mL: Homo sapiens, 48 h; for inhibition at 0.1 µg/mL: HL-60, 0.1 μg/mL; for inhibition at 1 µg/mL: HL-60, 1 μg/mL; for inhibition at 5 µg/mL: HL-60, 5 μg/mL; for inhibition at 10 µg/mL: HL-60, 10 μg/mL. The method, then:
as §1, §2, §3, §4, §5

Take `Cc1cc2c(c(C)c1O)C(C)CN2C(=O)C(C)(C)C` (stereo not drawn) [Compound 11c, N-Pivaloyl-5-hydroxy-3,4,6-trimethylindoline]: the inhibition at 0.1 µg/mL in assay [1] was determined as 13%; in assay [2] it was 18%; in assay [3] it was 0%. Moreover, the inhibition at 1 µg/mL turned out to be 12% in assay [1], 1% in assay [2] and 0% in assay [3]. The inhibition at 5 µg/mL in assay [1] worked out at 20%; in assay [2] (MCF-7, 5 μg/mL) it was 9%; in assay [3] it was 0%. The inhibition at 10 µg/mL in assay [1] (MB-435, 10 μg/mL) was found to be 12%; in assay [2] (MCF-7, 10 μg/mL), 31%; in assay [3], 0%. Moreover, the inhibition at 20 µg/mL came to 31% in assay [1] (MB-435, 20 μg/mL); 43% in assay [2] (MCF-7, 20 μg/mL); 0% in assay [3] (HL-60, 20 μg/mL).
As to `Cc1cc2c(C)c(O)c(C)c(C)c2o1` [Compound 33, 5-Hydroxy-2,4,6,7-tetramethylbenzofuran], the results for the inhibition at 0.1 µg/mL in assay [1], in assay [2] and in assay [3] were 1%, 19% and 0%, respectively. The inhibition at 1 µg/mL in assay [1] worked out at 2%; in assay [2], 0%; in assay [3] it was 0%. Further, the inhibition at 5 µg/mL in assay [1] was determined as 8%; in assay [2] (MCF-7, 5 μg/mL), 0%; in assay [3], 0%. The inhibition at 10 µg/mL amounted to 16% in assay [1] (MB-435, 10 μg/mL); 16% in assay [2] (MCF-7, 10 μg/mL); 7% in assay [3]. Besides, the inhibition at 20 µg/mL in assay [1] (MB-435, 20 μg/mL) amounted to 42%; in assay [2] (MCF-7, 20 μg/mL) it was 72%; in assay [3] (HL-60, 20 μg/mL) it was 36%. Further, the “inhibition of proliferation (in words)” value in assay [1] (MB-435, 20 μg/mL) is listed as “significantly inhibited the proliferation”; in assay [2] (MCF-7, 20 μg/mL) it was “significantly inhibited the proliferation”; in assay [3] (HL-60, 20 μg/mL), “significantly inhibited the proliferation”.
In the case of `CC(C)(C)c1cc2c(c(C(C)(C)C)c1O)CC(=O)O2` [Compound 24, 4,6-Di-tert-butyl-2,3-dihydro-5-hydroxy-2(3H)-benzofuranone], the inhibition at 0.1 µg/mL in assay [1] was found to be 13%; in assay [2] it was 0%; in assay [3], 7%. Besides, the values for the inhibition at 1 µg/mL in assay [1], in assay [2] and in assay [3] were 5%, 4% and 0%, respectively. Also, the inhibition at 5 µg/mL in assay [1] worked out at 29%; in assay [2] (MCF-7, 5 μg/mL) it was 25%; in assay [3], 5%. Also, the inhibition at 10 µg/mL in assay [1] (MB-435, 10 μg/mL) was 85%; in assay [2] (MCF-7, 10 μg/mL) it was 85%; in assay [3], 30%. Besides, the inhibition at 20 µg/mL in assay [1] (MB-435, 20 μg/mL) was found to be 97%; in assay [2] (MCF-7, 20 μg/mL), 97%; in assay [3] (HL-60, 20 μg/mL), 47%. Besides, the “inhibition of proliferation (in words)” value in assay [1] (MB-435, 10 μg/mL) is “significantly inhibited the proliferation”; in assay [2] (MCF-7, 10 μg/mL), “significantly inhibited the proliferation”; in assay [3] (HL-60, 20 μg/mL), “significantly inhibited the proliferation”.
As for `Cc1cc2c(c(C)c1O)C(C)CN2C(=O)C(C)C` (stereo not drawn) [Compound 11b, N-Isobutyryl-5-hydroxy-3,4,6-trimethylindoline], the inhibition at 0.1 µg/mL was 0% in assay [1], 24% in assay [2] and 0% in assay [3]. Moreover, the inhibition at 1 µg/mL in assay [1] was 21%; in assay [2] it was 26%; in assay [3], 0%. In addition, the inhibition at 5 µg/mL in assay [1] stood at 21%; in assay [2] (MCF-7, 5 μg/mL) it was 47%; in assay [3] it was 0%. The inhibition at 10 µg/mL amounted to 22% in assay [1] (MB-435, 10 μg/mL); 33% in assay [2] (MCF-7, 10 μg/mL); 0% in assay [3]. Besides, the inhibition at 20 µg/mL in assay [1] (MB-435, 20 μg/mL) was determined as 36%; in assay [2] (MCF-7, 20 μg/mL) it was 53%; in assay [3] (HL-60, 20 μg/mL), 0%. Also, the “inhibition of proliferation (in words)” value is recorded as “significantly inhibited the proliferation” in assay [1] (MB-435, 10 μg/mL) and “significantly inhibited the proliferation” in assay [2] (MCF-7, 5 μg/mL). Further, the “effect on HL-60 cells (in words)” value in assay [3] (HL-60, no dose stated) is “virtually no effect”.
As to `CC(=O)N1CC(C)(C)c2c1cc(C)c(O)c2C` [Compound 16, N-Acetyl-5-hydroxy-3,3,4,6-tetramethylindoline], the inhibition at 0.1 µg/mL in assay [1] and in assay [3] was 0% throughout. For the same molecule, the inhibition at 1 µg/mL was found to be 1% in assay [1] and 0% in assay [3]. In addition, the inhibition at 5 µg/mL in assay [1] turned out to be 9%; in assay [3] it was 11%. Moreover, the inhibition at 10 µg/mL in assay [1] (MB-435, 10 μg/mL) was found to be 18%; in assay [3], 11%. For the same molecule, the inhibition at 20 µg/mL amounted to 31% in assay [1] (MB-435, 20 μg/mL) and 15% in assay [3] (HL-60, 20 μg/mL). Further, the “inhibition of proliferation (in words)” value in assay [1] (MB-435, 5-20 μg/mL) is “significantly inhibited the proliferation”; in assay [3] (HL-60, 5-20 μg/mL) it was “significantly inhibited the proliferation”.
Turning to `COc1c(C)cc2c(c1C)C(C)CN2C(=O)C(C)C` (stereo not drawn) [Compound 13, N-Isobutyryl-5-methoxy-3,4,6-trimethylindoline], in assay [1], the inhibition at 0.1 µg/mL worked out at 4%, the inhibition at 1 µg/mL was -4% and the inhibition at 5 µg/mL turned out to be 8%. Besides, in assay [1] (MB-435, 10 μg/mL), the inhibition at 10 µg/mL was 17%. Moreover, in assay [1] (MB-435, 20 μg/mL), the inhibition at 20 µg/mL is 45% and the “inhibition of proliferation (in words)” value was “inhibited the proliferation”. In assay [3] (HL-60, 20 μg/mL), the “inhibition of proliferation (in words)” value was “inhibited the proliferation” and the inhibition at 20 µg/mL was determined as 53%. In assay [3], the inhibition at 0.1 µg/mL amounted to 0%, the inhibition at 1 µg/mL was determined as 10%, the inhibition at 5 µg/mL was 15% and the inhibition at 10 µg/mL is 27%.
As for `Cc1cc2c(c(C)c1O)C(C)(C)CN2C(=O)C(C)(C)C` [Compound 20, N-Pivaloyl-5-hydroxy-3,3,4,6-tetramethylindoline], in assay [1], the inhibition at 0.1 µg/mL was -1%, the inhibition at 1 µg/mL was -5% and the inhibition at 5 µg/mL was -1%. Besides, the inhibition at 10 µg/mL in assay [1] (MB-435, 10 μg/mL) is -13%. Besides, in assay [1] (MB-435, 20 μg/mL), the inhibition at 20 µg/mL was 31% and the “inhibition of proliferation (in words)” value was “inhibited the proliferation”. In addition, in assay [3] (HL-60, 20 μg/mL), the “inhibition of proliferation (in words)” value is “inhibited the proliferation” and the inhibition at 20 µg/mL stood at 63%. In assay [3], the inhibition at 0.1 µg/mL stood at 2%, the inhibition at 1 µg/mL was 6%, the inhibition at 5 µg/mL came to 18% and the inhibition at 10 µg/mL is 33%.
